# Results from US12473332B2, “Modified peptides and associated methods of use” (Advanced Technologies For Novel Therapeutics, LLC, priority 2019, dated 2025).
# Where no end group is shown, it is not given here.
# How the values were obtained:
# AKT [1] = biological target: AKT (Homo sapiens, UniProt P31749); experiment: in vitro AKT kinase assay with Ser-9 GSK-3 GST fusion protein substrate; PKAc peptide library screen; assay type: biochemical; settings: Ser-9 GSK-3 GST substrate
# [2] = trypan blue staining, live and dead cell count; assay type: cell-based; settings: 12 to 72 hours
# Description: Therefore, in addition to capturing live images, cells were stained with trypan blue at different time intervals following treatment with ZaTa and counted by a light microscope using a hemocytometer.
# AKT [3] = experiment: AKT activity in cultured neurons treated with PKA inhibitor or activator (AKT phosphorylation at Thr-308 and Ser-473); assay type: cell-based
# Protocol: To evaluate the significance of the AKT-PKAc interaction, kinase inhibitors were employed. […] Thus, cultured neurons were treated with the selective PKA inhibitor, H-89, and the potent PKA activator, forskolin, and AKT activity was analyzed.
# AKT1 = AKT1 (Homo sapiens, UniProt P31749); experiment: AKT1 in vitro kinase assay, γ-32P incorporation into Ser-21 GSK-3β substrate peptide; assay type: biochemical
# Chain of AKT1 (P31749 whole entry): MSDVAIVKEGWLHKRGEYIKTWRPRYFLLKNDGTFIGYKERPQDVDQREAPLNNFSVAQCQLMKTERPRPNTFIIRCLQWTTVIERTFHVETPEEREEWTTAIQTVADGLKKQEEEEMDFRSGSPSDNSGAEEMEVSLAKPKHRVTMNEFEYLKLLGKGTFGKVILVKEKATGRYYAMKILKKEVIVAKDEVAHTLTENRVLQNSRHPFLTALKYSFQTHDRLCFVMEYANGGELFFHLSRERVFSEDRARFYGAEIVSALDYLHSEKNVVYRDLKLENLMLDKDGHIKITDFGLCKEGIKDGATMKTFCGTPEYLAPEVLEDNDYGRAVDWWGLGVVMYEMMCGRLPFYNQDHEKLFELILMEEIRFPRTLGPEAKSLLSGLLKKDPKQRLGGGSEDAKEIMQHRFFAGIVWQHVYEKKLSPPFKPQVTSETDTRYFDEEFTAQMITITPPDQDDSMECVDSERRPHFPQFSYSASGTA
# Neuroblastoma cells = settings: literature; read-out: IC-50 on neuroblastoma cells; cited from earlier work
# glioblastoma cells = settings: literature; read-out: IC-50 on glioblastoma cells; cited from earlier work
# Chain of AKT (Homo sapiens, UniProt P31749) (P31749 whole entry, the tested form may be a part): as the sequence (P31749 whole entry) above
Molecule,inhibitory effect on catalytic activity of AKT (AKT [1]),number of dead cells [2],further results
G-V-L-I-Y-E-M-A-A-G-Y-P-P-F-F (GVLIYEMAAGYPPFF; MISC_FEATURE - Peptide_SEQ ID NO:70) [Peptide 63],significant inhibitory effects,–,–
AKRVKGRTWDLCGTPEY [ZaTa^T10D],–,a significant increase in the number of dead cells was not seen,–
"O=S(=O)(NCCNC/C=C/c1ccc(Br)cc1)c1cccc2cnccc12 [Peptide H-89, H-89]",–,–,activity of AKT (activation-dependent phosphorylation at Thr-308 and Ser-473) (AKT [3]): dose-dependent increase in the activity of AKT
G-F-A-K-R-V-K-G-R-T-W-T-L (GFAKRVKGRTWTL; MISC_FEATURE - Peptide_SEQ ID NO:59) [Peptide 52],–,–,inhibition of AKT1 catalytic activity (AKT1): not able to inhibit AKT1
W-A-L-G-V-L-I-Y-E-M-A-A-G-Y (WALGVLIYEMAAGY; MISC_FEATURE - Peptide_SEQ ID NO:69) [Peptide 62],significant inhibitory effects,–,–
AKRVKGRDWTLCGTPEY [ZaTa^T8D],–,a significant increase in the number of dead cells was not seen,–
AKRVKGRTWTLCGTPER [ZaTa^Y17R],–,a significant increase in the number of dead cells was observed,–
AKRVKGRTWTLCGRPEY [ZaTa^T14R],–,a significant increase in the number of dead cells was observed,–
D-Q-Q-G-Y-I-Q-V-T-D-F-G-F-A-K (DQQGYIQVTDFGFAK; MISC_FEATURE - Peptide_SEQ ID NO:56) [Peptide 49],significant inhibitory effects,–,–
Cn1nnc2c(C(N)=O)ncn2c1=O [Temodar],–,–,IC50 (Neuroblastoma cells): 602 µM; IC50 (glioblastoma cells): 421 to 1020 µM
Y-E-M-A-A-G-Y-P-P-F-F-A (YEMAAGYPPFFA; MISC_FEATURE - Peptide_SEQ ID NO:71) [Peptide 64],significant inhibitory effects,–,–
